The subject of assay [1] is primary hippocampal cells. In words: Primary neurosphere culture, hippocampus. Particulars: for generation of very large neurospheres (>250 μm) passaged long-term / increase in number of hippocampal neurospheres generated / number of hippocampal neurospheres: 1 ng/mL Wnt3a or 2 ng/mL PRL; for number of hippocampal neurospheres: n=3; for neurosphere number, aged hippocampus: aged (18 month old) hippocampus, n=4. The class given is cell-based, mouse. Here is the method: The tissue was enzymatically digested with 0.1% trypsin-EDTA (Gibco/Invitrogen, Eugene, Oreg.) for 7 minutes at 37° C., followed by a wash with 0.014% w/v trypsin inhibitor (type I-S from soybean; Sigma-Aldrich Australia, Sydney, Australia) dissolved in Hepes-buffered minimum essential medium (HEM), which consisted of minimum essential medium (Gibco/Invitrogen) supplemented with 16 mM HEPES (Sigma-Aldrich Australia) and 100 units/ml penicillin/streptomycin (Gibco/Invitrogene). The tissue was centrifuged at 100 rcf for 7 minutes, following which the pellet was resuspended in 1 ml neurosphere growth medium, mechanically triturated until smooth, then filtered through a 40 μm cell sieve (Falcon/BD Biosciences Australia, North Ryde, Australia). The neurosphere growth medium consisted of mouse NeuroCult™ NSC Basal Medium plus mouse NeuroCult™ NSC Proliferation Supplements (StemCell Technologies, Vancouver, Canada) with 2% bovine serum albumin (Roche, Basel, Switzerland) and 2 μg/ml heparin (Sigma-Aldrich Australia). The following growth factors were also included: 20 ng/ml purified mouse receptor-grade EGF (BD Biosciences Australia) and 10 ng/ml recombinant bovine FGF-2 (Roche). After centrifugation at 100 rcf for 7 minutes, the cells were plated at a density of approximately one hippocampus, SVZ or cortex or four olfactory bulbs per 96-well plate (Falcon/BD Biosciences Australia) with 200 μl neurosphere medium per well.
The neurosphere growth medium already contained 4.18 mM KCl. […] This level of potassium is around five times that of the normal physiological concentration of potassium, ˜4 mM. Nicardipine (Sigma-Aldrich), when used, was added to a final concentration of 10 μM. BaCl was used as an alternative to KCl in some experiments at a concentration of 1 mM and GABA at 100 μM. Recombinant mouse Wnt3a (R&D Systems) and recombinant mouse prolactin (PRL; R&D Systems) were added instead of KCl in some experiments at concentrations of 1 ng/mL and 2 ng/mL respectively.
(§1) Primary hippocampal cells were incubated for 10 days, and SVZ, olfactory bulb or cortical cells for 7 days, in humidified 5% CO2 to permit neurosphere formation. The primary neurospheres were then counted and collected for passaging or differentiation. Results of the neurosphere counts were expressed as mean±standard error and statistical analysis was performed using a standard t-Test (two sample assuming equal variance).

The test system of a further assay is SVZ cells. Kind of assay: Primary neurosphere culture, SVZ. In kind it is cell-based, mouse. Particulars: for number of SVZ-derived neurospheres: 1 ng/mL Wnt3a or 2 ng/mL PRL, n=2. The procedure:
Adult (6-8 week old) male C57/B16 mice were killed by cervical dislocation, their brains immediately removed and the hippocampus, SVZ, olfactory bulb or cortex dissected. The tissue was enzymatically digested with 0.1% trypsin-EDTA (Gibco/Invitrogen, Eugene, Oreg.) for 7 minutes at 37° C., followed by a wash with 0.014% w/v trypsin inhibitor (type I-S from soybean; Sigma-Aldrich Australia, Sydney, Australia) dissolved in Hepes-buffered minimum essential medium (HEM), which consisted of minimum essential medium (Gibco/Invitrogen) supplemented with 16 mM HEPES (Sigma-Aldrich Australia) and 100 units/ml penicillin/streptomycin (Gibco/Invitrogene). The tissue was centrifuged at 100 rcf for 7 minutes, following which the pellet was resuspended in 1 ml neurosphere growth medium, mechanically triturated until smooth, then filtered through a 40 μm cell sieve (Falcon/BD Biosciences Australia, North Ryde, Australia). The neurosphere growth medium consisted of mouse NeuroCult™ NSC Basal Medium plus mouse NeuroCult™ NSC Proliferation Supplements (StemCell Technologies, Vancouver, Canada) with 2% bovine serum albumin (Roche, Basel, Switzerland) and 2 μg/ml heparin (Sigma-Aldrich Australia). The following growth factors were also included: 20 ng/ml purified mouse receptor-grade EGF (BD Biosciences Australia) and 10 ng/ml recombinant bovine FGF-2 (Roche). After centrifugation at 100 rcf for 7 minutes, the cells were plated at a density of approximately one hippocampus, SVZ or cortex or four olfactory bulbs per 96-well plate (Falcon/BD Biosciences Australia) with 200 μl neurosphere medium per well.
The neurosphere growth medium already contained 4.18 mM KCl. […]
as §1

For the next assay, the system named is olfactory bulb cells. Kind of assay: Primary neurosphere culture, olfactory bulb. Conditions: potassium-activated vs control. The class given is cell-based, mouse. The procedure: (§2) Adult (6-8 week old) male C57/B16 mice were killed by cervical dislocation, their brains immediately removed and the hippocampus, SVZ, olfactory bulb or cortex dissected. The tissue was enzymatically digested with 0.1% trypsin-EDTA (Gibco/Invitrogen, Eugene, Oreg.) for 7 minutes at 37° C., followed by a wash with 0.014% w/v trypsin inhibitor (type I-S from soybean; Sigma-Aldrich Australia, Sydney, Australia) dissolved in Hepes-buffered minimum essential medium (HEM), which consisted of minimum essential medium (Gibco/Invitrogen) supplemented with 16 mM HEPES (Sigma-Aldrich Australia) and 100 units/ml penicillin/streptomycin (Gibco/Invitrogene). The tissue was centrifuged at 100 rcf for 7 minutes, following which the pellet was resuspended in 1 ml neurosphere growth medium, mechanically triturated until smooth, then filtered through a 40 μm cell sieve (Falcon/BD Biosciences Australia, North Ryde, Australia). […]
as §1

The subject of another assay is cortical cells. In words: Primary neurosphere culture, cortex. In kind it is cell-based, mouse. Conditions: depolarization vs control. The procedure:
as §2, §1

The next assay has as its system hippocampal neurospheres. In words: Hippocampal neurosphere passaging. The class given is cell-based, mouse. The procedure: Primary neurospheres from the unstimulated hippocampus were also passaged as single spheres.
Hippocampal neurosphere cultures were initiated by removing 150 μl of the medium from wells containing single neurospheres, treating with 100 μl 0.1% trypsin-EDTA for 2 minutes at room temperature, followed by washing with 100 μl trypsin inhibitor in HEM. The neurospheres were mechanically triturated until dissociated and replated in well plates in 2 ml of complete medium. Neurospheres were passaged every 10 days by centrifuging the neurospheres, removing the medium and incubating in 1 ml of 0.1% trypsin-EDTA for 2 minutes at room temperature. After the addition of an equal volume of trypsin inhibitor, the neurospheres were centrifuged at 100 rcf for 5 minutes and the supernatant removed. Cells were mechanically triturated in 500 μl of complete medium and trypan blue staining was used to evaluate the number of cells, both viable and total number, on a hemocytometer. The passaged cells were then re-plated with complete medium at a density of 1×10^4 cells/cm^2 in tissue culture flasks (Nunc, Rochester, N.Y.) or tissue culture plates (Falcon/BD Biosciences) as appropriate.

Assay [2] has as its system primary hippocampal cells. In words: Microarray analysis after KCl depolarization. In kind it is cell-based, mouse. Particulars: following depolarization, P<0.001. Here is the method:
Hippocampal tissue was dissected and dissociated as described above and incubated either in the presence or absence of 15 mM KCl for 24 hours. Cells were pelleted and total RNA was isolated using the RNeasy mini kit (Qiagen) and quantitated using the Bioanalyzer 2100 (Agilent). aRNA was prepared from 500 ng of RNA using the Message-Amp™-II Biotin Enhanced Kit (Ambion). A total of 15 μg biotinylated aRNA was fragmented and run on a GeneChip mouse Genome 430A 2.0 Array (Affymetrix) in accordance with the manufacturer's instructions.

The subject of assay [3] is latent precursor cell population. Kind of assay: Neurosphere culture of FACS-sorted Emx1-GFP / GFAP-GFP cells. In kind it is cell-based, mouse. Here is the method:
DCX-GFP, Emx1-GFP and GFAP-GFP mice are from the Mutant Mouse Regional Resource Center, The Gene Expression Nervous System Atlas BAC transgenic project (Gong et al., 2002).
Brains were collected and processed. GFP^+ve cells were separated by fluorescence-activated cell sorting (FACS) using a FACS Vantage cell sorter (BD Biosciences). A wild-type littermate control was used to determine background fluorescence levels. For primary neurosphere cultures the cells were plated at a density of 500 cells/well in 96-well plates (Falcon/BD Biosciences, San Jose, Calif.) with 0.2 ml complete medium per well. Complete medium consisted of mouse NeuroCult™ NSC Basal Medium plus mouse NeuroCult™ NSC Proliferation Supplements (StemCell Technologies,
Vancouver, Canada) with 2% bovine serum albumin (Roche, Basel, Switzerland) and 2 μg/ml heparin (Sigma-Aldrich). The following growth factors were also included: 20 ng/ml purified mouse receptor-grade epidermal growth factor (EGF; BD Biosciences Australia) and 10 ng/ml recombinant bovine basic fibroblast growth factor (FGF-2; Roche). Primary cells were incubated for 7 days in humidified 5% CO2 to permit neurosphere formation. The primary neurospheres were then counted and collected for passaging or differentiation. Results of the neurosphere counts were expressed as mean+ or −standard error and statistical analysis was performed using a standard t-Test (two sample assuming equal variance).

A further assay deals with C57BL/6 male mice. In words: Pilocarpine-induced seizures. In kind it is in vivo, mouse. Conditions: 350 mg/kg intraperitoneal. The procedure: Seizures were induced in 6-8 week old C57BL/6 male mice by the administration of pilocarpine, a muscarinic cholinergic agonist. Thirty minutes prior to pilocarpine administration, the mice were injected with 2.5 mg/kg of the cholinergic antagonist scopolamine methyl nitrate (Sigma-Aldrich) to reduce peripheral cholinergic effects. They then received intraperitoneal injections of 350 mg/kg pilocarpine hydrochloride (Sigma-Aldrich). […] Seizures were stopped 2 hours after status epilepticus onset, with an intraperitoneal injection of 5 mg/kg diazepam ([…], Parnell Laboratories Sydney, Australia).

A further assay has as its system SVZ-derived neurospheres. Conditions: cited from earlier work.
The subject of a further assay is adult female mice. Conditions: infusion, cited from earlier work.
[4] abbreviates: 10 nM and 30 nM PRL in presence of EGF.

This is an account of results in patent publication US20110244569A1, “METHOD OF INDUCING PROLIFERATION AND/OR DIFFERENTIATION OF NEURAL PRECURSOR CELLS BY INTRODUCING PROLACTIN OR WNT3A TO ACTIVATE LATENT NEURAL PRECURSOR CELLS” (priority 2008, published 2011).

Structures can show the parent of a compound that is named as a salt.

Consider `[Ba+2].[Cl-].[Cl-]` [BaCl2, barium chloride], for which, in assay [1] (1 mM BaCl2), the “increase in numbers of neurospheres” value was “over 2 fold”.
In the case of `[Cl-].[K+]` [KCl, potassium chloride], in assay [1] (20 mM KCl vs control (4 mM) potassium or sodium osmotic control, adult mouse), the “increase in number of neurospheres generated” value is recorded as “over 3 fold”. The “increase in number of neurospheres, stimulated vs control” value in assay [1] (18 month old hippocampus, depolarizing conditions) is given as “over 12 fold”. Besides, in assay [1] (KCl as low as 10 mM and as high as 30 mM), the “effect on number of neurospheres generated” value was “significantly increase the number of neurospheres generated”. Also, the optimal depolarizing level in assay [1] (KCl dose response assay) was 15 mM. Besides, the “further increase of 33 week HD hippocampal precursors” value in assay [1] (R6/1 Huntington's disease mice, 33 weeks, potassium depolarization in vitro) is “could not be further increased”. Further, the “further stimulation of precursors from mice that underwent SE” value in [1] (depolarizing levels of potassium added in vitro after status epilepticus) is “no further stimulatory effect”. In addition, the “decrease in neurosphere number” value in the assay on SVZ cells (potassium-induced depolarization, adult SVZ) is “approx 40%”. In the assay on olfactory bulb cells, the “increase in number of olfactory bulb neurospheres” value was “over 3 fold”. Moreover, in the assay with olfactory bulb cells, the “size of activated olfactory-bulb neurospheres” value was “significant increase in the size”. For the same molecule, the “increase in cortex neurosphere number” value in the assay on cortical cells was “over 3 fold”. Moreover, the “diameter of stimulated neurospheres capable of long term passage” value in the assay with hippocampal neurospheres (all twenty three) is > 110 μm. For the same molecule, the “large primary spheres that could be expanded in culture for up to 10 passages” value in the assay on hippocampal neurospheres (potassium stimulated, standard conditions 0/113) is recorded as 23 out of 64. The “up-regulation of PRL” value in assay [2] is 6.4 fold. The “up-regulation of Wnt3a” value in assay [2] amounted to 14.4 fold. The SFU in assay [3] (Emx1+ve cells + KCL) is 1/37; in assay [3] (Emx1-ve cells + KCL), 1/10896; in assay [3] (GFAP+ve cells + KCL), 1/127; in [3] (GFAP-ve cells + KCL) it was 1/2220.
With `CC[C@@H]1C(=O)OC[C@@H]1Cc1cncn1C` [pilocarpine, pilocarpine hydrochloride], in the assay on C57BL/6 male mice, the “mice in which seizures were observed” value was found to be 70%, the “seizing mice that entered status epilepticus” value is recorded as 35% and the “time to status epilepticus after injection” value was 78 ± 43 min.
Consider Wnt3a, for which, in assay [1], the “generation of very large neurospheres (>250 μm) passaged long-term” value was “generation of a number of the very large neurospheres”; the “increase in number of hippocampal neurospheres generated” value is 2 fold; the “number of hippocampal neurospheres” value is on record as 204±66.1 % of control; the “neurosphere number, aged hippocampus” value is 580±230 % of control. The “number of SVZ-derived neurospheres” value with SVZ cells is 98.5±4.5 % of control.

B1: PRL: recombinant mouse prolactin (PRL; R&D Systems) (protein, UniProt P06879 30-226, looked up)
Prolactin: LPICSAGDCQTSLRELFDRVVILSHYIHTLYTDMFIEFDKQYVQDREFMVKVINDCPTSSLATPEDKEQALKVPPEVLLNLILSLVQSSSDPLFQLITGVGGIQEAPEYILSRAKEIEEQNKQLLEGVEKIISQAYPEAKGNGIYFVWSQLPSLQGVDEESKILSLRNTIRCLRRDSHKVDNFLKVLRCQIAHQNNC
For B1, in assay [1], the “generation of very large neurospheres (>250 μm) passaged long-term” value was “generation of a number of the very large neurospheres”; the “increase in number of hippocampal neurospheres generated” value was 2 fold; the “number of hippocampal neurospheres” value was 217±13 % of control; the “neurosphere number, aged hippocampus” value is recorded as 254±23 % of control. Also, the “number of SVZ-derived neurospheres” value with SVZ cells is 100±9 % of control. Besides, the “effect on number of SVZ-derived neurospheres” value with SVZ-derived neurospheres (1 nM PRL) is listed as “no effect”. Moreover, in the assay on SVZ-derived neurospheres (setting [4]), the “increase in number of neurons per neurosphere” value is “two-fold” and the “increase in numbers of SVZ-derived neurospheres” value is recorded as “up to 35%”. Also, in the assay with SVZ-derived neurospheres (without EGF, US 2003/0054998), the “number of neurospheres in vitro, prolactin alone” value is reported as “did not significantly increase”. The “number of new olfactory interneurons” value with adult female mice (after 4 weeks) is “doubled”. In the assay with adult female mice (US 2003/0054998), the “BrdU-labeled cells in the forebrain SVZ” value is recorded as “increased”. In the assay on adult female mice, the “number of proliferating cells in hippocampal dentate gyrus” value is recorded as “no effect”.
